Test results as given in patent US12329733B2, “Acetyl-leucine or a pharmaceutically acceptable salt thereof for improved mobility and cognitive function” (INTRABIO LTD., priority 2016, dated 2025).

Columns and labels:
[1] = system: patients with postural imbalance / gait disorder; subjects; assay: clinical examination and patient/family reports of balance, gait, dizziness and falls; assay type: in vivo, human
Excerpt: In addition to the mobility assessments disclosed above, mobility in a subject having a mobility disorder associated with ageing may be tested, for example, using assessments of balance and/or through monitoring the number of falls experienced by the subject.

[2] = system: rat model of an acute unilateral labyrinthectomy; conditions: by activation of the vestibulo-cerebellum and deactivation of the posterolateral thalamus; ref (4); cited from earlier work

Row | SMILES | improvement during treatment ([1]; Example 2: person, balance disorder, Datscan borderline pathological) | improvement during treatment ([1]; Example 5: patient, progressive gait disorder) | effect on postural compensation [2]
1 | N[C@@H](Cc1ccc(O)c(O)c1)C(=O)O [L-Dopa] | no improvement was observed | No improvement was observed | –
2 | CC(=O)N[C@@H](CC(C)C)C(=O)O [N-acetyl-L-leucine] | – | – | significant effect
